“Also recorded” adds a separate entry of the source.
Legend:
Type in all cases: in vivo, mouse
tumor vasculature = experiment: Tumor vasculature (CD34 IHC, heavy dextran leaky vasculature experiment)
Protocol: Tumor bearing mice that had been treated for 5 days with vehicle or TMP195 were injected with a heavy molecular weight (250 kDa; Sigma-Aldrich FD250S) dextran labeled with FITC36. After 10 minutes, mice were sacrificed. […] Tumors were removed and placed in a 4% PBS/Paraformaldehyde solution overnight, then embedded in a 20% sucrose solution overnight. Tumors were embedded in an optimum cutting temperature (OCT) solution and stored at −80° C. prior to sectioning and staining. The extent of the heavy dextran that permeated through the vasculature was visualized by immunofluorescence.

whole MMTV-PyMT tumors = experiment: Gene expression in RNA isolated from whole tumors after two weeks of treatment; conditions: two weeks TMP195 vs vehicle, n=3 mice per group
Protocol: All procedures were performed at Boston University Microarray Resource Facility as described in the […] ® Whole Transcript (WT) Plus Reagent Kit Manual (Affymetrix, Santa Clara, Calif.). Briefly, the total RNA was isolated using an RNEASY® kit (Qiagen), and the sample integrity was verified using RNA 6000 Pico Assay RNA chips run in Agilent 2100 Bioanalyzer (Agilent Technologies). […] The obtained cDNA was used as a template for in vitro transcription using GeneChip® WT Expression Kit (Life Technologies). […] During this step, dUTP was incorporated. […] IVT and cDNA fragmentation quality controls were carried out by running an mRNA Pico assay in the Agilent 2100 Bioanalyzer. The labeled fragmented DNA was hybridized to the Gene Arrays 1.0ST for 16-18 h in […] ® Hybridization oven 640 at 45° C. with rotation (60 r.p.m.). The hybridized samples were washed and stained using Affymetrix fluidics station 450 as per manufacturer's instruction (Hybridization, Washing and Staining kit, Affymetrix). Microarrays were immediately scanned using Affymetrix GeneArray Scanner 3000 7G Plus (Affymetrix).

[1] = system: CD11b+ bone marrow derived CFSE-labeled monocytes; experiment: Monocyte tracking experiment; conditions: TMP195 treatment of recipient mice vs DMSO
Protocol: Monocyte tracking was adapted and modified from Qian et al.^35 Bone marrow cells were isolated from approximately 80 day old wild-type FVB/N virgin females. CD11b+ cells were isolated with CD11b MicroBeads (Miltenyi Biotec 130-049-601) using LS magnetic separation columns (Miltenyi Biotec 130-042-401) per manufacturer's instruction. CD11b^+ cells were incubated with 10 μM of CFSE (ThermoFisher C34554) for 15 minutes at 37° C. […] Mice were treated for an additional 5 days and tumors were harvested. The percent of CD11b^+ CFSE^+ double positive cells was assessed by flow cytometry.

MMTV-PyMT tumors = experiment: Depletion experiments (anti-CD11b, anti-CSF1, anti-CD8, anti-CD4, anti-IFNγ)
Protocol: For CSF1 depletion, mice were injected IP with 1 mg of anti-CSF1 (BioXCell BE0204; clone 5A1) 1 day before treatment with vehicle or compound, and then with 0.5 mg every 5 days^3. For CD11b depletion mice were injected IP with 100 μg of anti-CD11b (clone M1/70; BioLegend 101231) one day before treatment with vehicle or compound, and then every other day.^34 For CD8 immune cell depletion, mice were injected IP with 1 mg anti-CD8 immunoglobulin (BioXCell BE0117; clone YTS169.4) or control IgG2b (BioXCell BE0090; clone LTF-2) on day 1 and then with 0.5 mg every 5 days for 2 week study. For 6-day experiment mice were dosed with: IgG1 (BioXcell BE0088; clone HRPN), α-CD8 (BioXcell BE0117; clone YTS169.4), α-CD4 (BioXcell BE0033-1; clone GK1.5) and α-INFγ (BioXcell BE0055; clone XMG1.2) with 1 mg on day 0 and 0.5 mg on day 4; except α-CD4 which was dosed at 400 μg on day 0 and 400 μg on day 4.

[2] = system: myeloid cells (CD11b+) and T lymphocyte (CD3+) populations in the tumor; experiment: Gene expression of FACS double-sorted tumor infiltrating leukocytes from MMTV-PyMT tumors
Protocol: Tumor cells were isolated and processed as previously described. To enrich for CD45^+ immune cells, EPCAM^+ tumor cell depletion was carried out. Whole tumor cell suspension was incubated with biotinylated anti-EPCAM antibody (MACS Miltenyi cat. #130-101-859, clone caa7-9G8) for 10 minutes followed by incubation with Anti-Biotin Microbeads (MACS Miltenyi cat. #130-090-485) for 15 minutes at 4° C. in the dark. […] Following negative selection, EPCAM-depleted cells were stained for anti-mouse CD45 Alex FLOUR® 488 (BioLegend cat. #103121, clone 30-F11), anti-mouse CD3 BV421 (BioLegend cat. #100227, clone 17A2), anti-mouse CD11b APC (BioLegend cat. #101211, clone M1/70), and anti-mouse CD19 (BioLegend cat. #115507, clone 6D5). 7-AAD Viability Staining Solution (BioLegend cat. #420403) was applied to the cells 10 minutes prior to sorting on the BD FACSAria. CD45+/CD19-/7-AAD-/CD3+ cells and CD45+/CD19-/7-AAD-/CD11b+ cells were sorted into DMEM medium (Life Technologies cat. #11995-065) containing 2% FBS at 4° C. Cells were pelleted and immediately lysed in RNEASY® RLT buffer (RNEASY® Mini Plus Kit, Qiagen cat. #74134) containing 2-mercaptoethanol. RNA was isolated according to RNEASY® instructions in combination with RNase-Free DNase Set (Qiagen cat. #79254) standard protocol, and quality was verified with the Nanodrop™ Spectrophotometer. To obtain adequate amounts of RNA tumors from 5 mice were pooled together for each “sample”.
All procedures were performed at Boston University Microarray Resource Facility as described in the GENECHIP® Whole Transcript (WT) Plus Reagent Kit Manual (Affymetrix, Santa Clara, Calif.). Briefly, the total RNA was isolated using an RNEASY® kit (Qiagen), and the sample integrity was verified using RNA 6000 Pico Assay RNA chips run in Agilent 2100 Bioanalyzer (Agilent Technologies). The total RNA (200 ng) was reverse transcribed using GENECHIP® WT PLUS Reagent Kit (Affymetrix). The obtained cDNA was used as a template for in vitro transcription using GeneChip® WT Expression Kit (Life Technologies). The obtained antisense cRNA was purified using Nucleic Acid Binding Beads (GENECHIP® WT PLUS Reagent Kit, Affymetrix) and used as a template for reverse transcription to produce single-stranded DNA in the sense orientation. During this step, dUTP was incorporated. The DNA was then fragmented using uracil DNA glycosylase (UDG) and apurinic/apyrimidinic endonuclease 1 (APE 1) and labeled with DNA labeling reagent covalently linked to biotin using terminal deoxynucleotidyl transferase (TdT, GENECHIP® WT PLUS Reagent Kit, Affymetrix). IVT and cDNA fragmentation quality controls were carried out by running an mRNA Pico assay in the Agilent 2100 Bioanalyzer. […]

[3] = TMP195 daily for 5 days vs DMSO

CC(C)(CNC(=O)c1cccc(-c2noc(C(F)(F)F)n2)c1)c1coc(-c2ccccc2)n1 [TMP195, N-(2-methyl-2-(2-phenyloxazol-4-yl)propyl)-3-(5-(trifluoromethyl)-1,2,4-oxadiazol-3-yl)benzamide]
tumor vasculature organization (CD34+ vessel structure) (tumor vasculature; 5 days of TMP195 vs DMSO): more organized | integrity of the tumor vasculature (retention of IV heavy dextran) (tumor vasculature; 5 days of TMP195 vs vehicle): significantly improved | differential gene expression in whole tumor RNA (whole MMTV-PyMT tumors): overall lack of differential gene expression | proportion of IV injected CD11bhiCFSE+ monocytes recruited to tumors [1]: significant increase; also recorded: significantly enhanced | anti-tumor efficacy with myeloid cell depletion (anti-CD11b) (MMTV-PyMT tumors; TMP195 50 mg/kg IP daily plus anti-CD11b): abrogated the efficacy | anti-tumor efficacy with macrophage depletion (anti-CSF-1) (MMTV-PyMT tumors; TMP195 50 mg/kg IP daily plus anti-CSF-1): abrogated the efficacy | CD34 staining in tumor sections with IFNγ neutralization (MMTV-PyMT tumors; TMP195 plus anti-IFNγ antibody): failed to normalize CD34 staining | autochthonous tumor burden with CD4+ cell depletion (MMTV-PyMT tumors; TMP195 plus α-CD4, 6 days): reduced | single agent efficacy with CD8+ cell depletion (MMTV-PyMT tumors; TMP195 plus α-CD8): prevented the single agent efficacy | Granzyme B+ CD8+ T cells in tumors with IFNγ neutralization (MMTV-PyMT tumors; TMP195 plus α-IFNγ): disappearance | reduction of tumor burden with IFNγ neutralization (MMTV-PyMT tumors; TMP195 plus α-IFNγ, 6 days): loss of efficacy | number of differentially expressed probes (δ-factor >1.5) in CD3+ cells [2, 3]: 3 probes | number of differentially expressed probes (δ-factor >1.5) in CD11b+ cells [2, 3]: 26 probes | increase in gene expression in CD11b+ myeloid cells ([2]; TMP195 daily for 5 days vs DMSO, probes with δ-factor >1.5): up to 4.8 fold | IFNγ response gene signature in tumor-resident CD11b+ cells ([2]; TMP195 treatment): induced an IFNγ response gene signature

— patent US20200268720A1, “METHODS OF USE OF A CLASS IIA HDAC INHIBITOR” (GlaxoSmithKline LLC, priority 2016, published 2020)
